Experimental data reported in ChEMBL document CHEMBL3286217, “Structure-based efforts to optimize a non-β-lactam inhibitor of AmpC β-lactamase” (Bioorg Med Chem, 2014).

Experiments:
[1] = Inhibition of beta-lactamase AmpC (unknown origin) by UV-Vis spectrophotometry
[2] = Reversible competitive inhibition of beta-lactamase AmpC (unknown origin)
[3] = Competitive inhibition of beta-lactamase AmpC (unknown origin) by Lineweaver-Burk plot analysis

Row | Ki [1] [µM] | SMILES | other results
1 | 112 | O=C(O)c1sccc1S(=O)(=O)NCc1ccc(Cl)cc1 | 
2 | 58 | Cc1ccc(CNS(=O)(=O)c2ccsc2C(=O)O)cc1 | 
3 | 18 | O=C(O)c1ccc(CNS(=O)(=O)c2ccsc2C(=O)O)cc1 | 

Second part, the molecule before the results:

Row | SMILES | Ki [1] [µM] | other results
4 | O=C(O)c1ccc(NS(=O)(=O)c2ccsc2C(=O)O)cc1 | 1.7 | 
5 | O=C(O)c1ccc(CCCNS(=O)(=O)c2ccsc2C(=O)O)cc1 | 19 | 
6 | O=C(O)c1sccc1S(=O)(=O)Nc1ccc(Cl)cc1 |  | Ki [2]: 26 µM
7 | O=C(O)c1ccc(CCNS(=O)(=O)c2ccsc2C(=O)O)cc1 |  | Ki [3]: 26 µM
